Reference: publication PMC5041982, “Small-molecule inhibition of STAT3 in radioresistant head and neck squamous cell carcinoma” (Oncotarget, 2016)

Tested on: STAT3/1 regulated genes
Assay: RNA-seq of UM-SCC-17B tumor xenografts
Type: in vivo
Conditions: UM-SCC-17B xenografts, nude mice

COc1ccc(S(=O)(=O)Nc2cc(-c3c(O)ccc4ccccc34)c(O)c3ccccc23)cc1 [Compound C188-9]
2.2: Fold Change, THBS1
3.7: Fold Change, ANPEP
3.3: Fold Change, IGFBP3
5.1: Fold Change, CCL2
2.6: Fold Change, ALDH3A1 | Fold Change, CXCL3
5.9: Fold Change, SLC2A3
−1.8: Fold Change, MX2 | Fold Change, OAS2 | Fold Change, PLSCR1 | Fold Change, SCARA3
−2.6: Fold Change, OASL | Fold Change, SFRP1
2.1: Fold Change, CCL20
−1.7: Fold Change, CALML3 | Fold Change, CLU | Fold Change, DDX58 | Fold Change, GBP1 | Fold Change, HERC5 | Fold Change, IFI27 | Fold Change, IFI44 | Fold Change, IRF7 | Fold Change, MMP10 | Fold Change, SAMD9 | Fold Change, TRIM22 | Fold Change, TYMP
2.0: Fold Change, CYP1B1 | Fold Change, EGR1 | Fold Change, FOS | Fold Change, IER3 | Fold Change, VEGFA
−2.5: Fold Change, IFIT1 | Fold Change, IFIT3
−2.1: Fold Change, BATF2 | Fold Change, CMPK2 | Fold Change, IFI6 | Fold Change, KRT15 | Fold Change, OAS1
−3.7: Fold Change, PCDH17
1.9: Fold Change, ATF3 | Fold Change, FOSB | Fold Change, NEDD9 | Fold Change, NRP2
6.5: Fold Change, NPTX2
1.8: Fold Change, ADM | Fold Change, COL16A1 | Fold Change, EREG | Fold Change, NOTCH4 | Fold Change, NR4A2 | Fold Change, PHLDA1 | Fold Change, SLC4A7 | Fold Change, STC1
1.5: Fold Change, DYNC1H1 | Fold Change, HSPG2 | Fold Change, TGFBR3
2.7: Fold Change, SMAD9
2.9: Fold Change, AKAP12 | Fold Change, CXCL2 | Fold Change, TNC
−1.5: Fold Change, IFITM1 | Fold Change, IFITM3 | Fold Change, LY6E | Fold Change, UBE2L6
1.6: Fold Change, HK2 | Fold Change, NAV1 | Fold Change, SERTAD2 | Fold Change, SLC7A11
−1.6: Fold Change, CCND3 | Fold Change, HERC6 | Fold Change, IFIT5 | Fold Change, PSMB9 | Fold Change, SERPINB3 | Fold Change, SLPI | Fold Change, SP110
−1.9: Fold Change, IFI35 | Fold Change, MX1 | Fold Change, UPK1B | Fold Change, USP18
1.7: Fold Change, COL5A1 | Fold Change, PDK1 | Fold Change, SLC2A1 | Fold Change, VLDLR
−2.2: Fold Change, EPSTI1 | Fold Change, IFIT2
−2.3: Fold Change, CCNA1 | Fold Change, IFI44L | Fold Change, ISG15 | Fold Change, NNMT
4.4: Fold Change, PTGS2
−5.1: Fold Change, SPOCK3
